Each block holds one compound with its values, some of them ahead of it.
Columns and labels:
[1] = stability of solvate single crystals to air and humidity; type: physicochemical
Protocol: Characterisation: Structurally, solvate forms SC and SD are characterized by single crystal X-ray diffraction. The single crystals are grown using heptane as antisolvent. The isopropanol and the ethanol solvate of SPP100 hemifumarate can be grown as small needles from isopropanol, or ethanol solution respectively, by precipitation with heptane antisolvent. As there the data quality is better, only the ethanol solvate form obtained from ethanol/heptane (so called SD, corresponding to Form D mentioned in Example 9) is discussed in detail. But from the data the conclusion can be drawn that the isopropanol solvate (so called SC) is isostructural to the ethanol solvate (when heptane is used as antisolvent). The solvate SD stoichiometry consists of one SPP100 molecule, 1/2 fumarate group and 3 solvent molecules.
They consist of a distinct channel structure along the crystallographic b-axis which occupies about 25% of the whole crystal structure volume. […] Hydrogen bonds can be found between SPP100 (hydroxyl group and protonated amine group of SPP100) and the fumarate group and between SPP100 molecules (protonated amine group and oxygen). Another H-bond exists between ethanol and SPP100 (oxygen and amine group). Dominating propagation vector of the H-bonds is the crystallographic b-axis. […]

[2] = tested on: patients with mild to moderate hypertension; conditions: aliskiren 75 mg to 300 mg; 4 weeks duration; cited from earlier work
[3] = tested on: severely sodium-depleted marmoset monkeys; conditions: orally or intravenously; cited from earlier work
[4] = tested on: patients with NYHA class II-IV heart failure and LVEF <35%; conditions: in vivo; cited from earlier work
[5] = equilibration in solvents, solid investigated by XRPD; type: physicochemical; parameters: key to XRPD after equilibration: +: change detected; −: no change detected; //: not carried out as substance too soluble; conditions: for change of the form: in cyclohexane or n-heptane; for XRPD after equilibration: 25 degree Celsius
Protocol: Between 200 mg to 700 mg of drug substance are equilibrated with 0.5 to 1 ml of solvent for at least 24 h in a water bath at the determined temperature +/−0.1° C. After equilibration, the solutions are filtered. The solid part is investigated by XRPD (X-ray Powder Diffraction).

[6] = heat of dissolution in water; type: physicochemical; conditions: about 100 mg in 100 ml of water, 25° C.; mean of three determinations
Protocol: About 100 mg of material is placed in a sealed glass ampoule. After equilibration at 25° C., the ampoule is broken in 100 ml of water.

[7] = dynamic vapor sorption isotherm; type: physicochemical; conditions: for reversibility of hygroscopicity: up to 60% R.H. at 25° C.
From the text: B) Dynamic Vapor Sorption Isotherm of Modification A, Modification B and Amorphous Material: In the following tables 7 and 8, R.H. stands for Relative Humidity, Sorpt. for Sorption and Desorpt. for Desorption.

[8] = amorphous material kept under organic solvent vapor, XRPD; type: physicochemical; parameters: key: +: change detected; −: no change detected; //: not carried out as substance too soluble; conditions: room temperature, at least one week
Protocol: For example, about 100 mg of amorphous material are placed under organic solvent vapor for at least one week at room temperature. The solid material is investigated by XRPD (X-ray powder diffraction), and the following results are obtained: […]

[9] = XRPD during storage under nitrogen flow; type: physicochemical
Protocol: (§1) The aim is to evaluate the influence of the storage condition on the crystalline form of SPP100 hemifumarate For this purpose, two different experiments have been performed. The first one consists to submit SPP100 hemifumarate modification A to a nitrogen flow and to record at various time the corresponding XRPD pattern. During the second experiment the influence of relative humidity on the crystalline modification A is determined by XRPD measurement.

[10] = XRPD at various relative humidities; type: physicochemical
Protocol: as §1

Compound: COCCCOc1cc(C[C@@H](C[C@H](N)[C@@H](O)C[C@H](C(=O)NCC(C)(C)C(N)=O)C(C)C)C(C)C)ccc1OC [SC, aliskiren hemifumarate]
stability of the structure to air and humidity [1]: very sensible to air and humidity and decompose rapidly

Compound: COCCCOc1cc(C[C@@H](C[C@H](N)[C@@H](O)C[C@H](C(=O)NCC(C)(C)C(N)=O)C(C)C)C(C)C)ccc1OC [aliskiren, 2(S),4(S),5(S),7(S)-N-(3-amino-2,2-dimethyl-3-oxopropyl)-2,7-di(1-methylethyl)4-hydroxy-5-amino-8-[4-methoxy-3-(3-methoxy-propoxy)phenyl]-octanamide]
blood pressure [2]: Dose dependent decreases
mean arterial pressure [3]: sustained reductions
plasma concentrations of active and total renin [3]: significant increases
plasma renin activity [3]: complete inhibition
PRA [4]: inhibited
angiotensin II levels [4]: Trends towards reduced

change of the form [5]: No change
heat of dissolution, Mean [6]: -5.88 kcal/mol
hygroscopic behavior [7]: strong hygroscopic behavior
hygroscopicity compared among the 3 modifications [7]: least hygroscopic form
Desorpt wt % 2nd ([7]; R.H. 0 %): 0.04 wt %
Sorpt. wt % 1st ([7]; R.H. 0 %): 0.00 wt %
Desorpt wt % 2nd ([7]; R.H. 10 %): 2.33 wt %
Sorpt. wt % 1st ([7]; R.H. 10 %): 0.94 wt %
Desorpt wt % 2nd ([7]; R.H. 20 %): 3.17 wt %
Sorpt. wt % 1st ([7]; R.H. 20 %): 1.69 wt %
Desorpt wt % 2nd ([7]; R.H. 30 %): 3.76 wt %
Sorpt. wt % 1st ([7]; R.H. 30 %): 2.53 wt %
Desorpt wt % 2nd ([7]; R.H. 40 %): 4.47 wt %
Sorpt. wt % 1st ([7]; R.H. 40 %): 3.68 wt %
Desorpt wt % 2nd ([7]; R.H. 50 %): 5.65 wt %
Sorpt. wt % 1st ([7]; R.H. 50 %): 5.52 wt %
Desorpt wt % 2nd ([7]; R.H. 60 %): 7.68 wt %
Sorpt. wt % 1st ([7]; R.H. 60 %): 7.68 wt %
reversibility of hygroscopicity [7]: reversible
Compound: COCCCOc1cc(C[C@@H](C[C@H](N)[C@@H](O)C[C@H](C(=O)NCC(C)(C)C(N)=O)C(C)C)C(C)C)ccc1OC [Modification B, aliskiren hemifumarate]

change of the form [5]: No change
hygroscopic behavior [7]: strong hygroscopic behavior
reversibility of hygroscopicity [7]: reversible
Modification obtained by XRPD ([8]; 1-hexanol vapor): + Typ V
Modification obtained by XRPD ([8]; 2-propanol vapor): + Typ V
Modification obtained by XRPD ([8]; Acetonitrile vapor): + Typ. IV
Modification obtained by XRPD ([8]; Dimethylformamide vapor): Mainly amorphous
Modification obtained by XRPD ([8]; Ethanol vapor): Amorphous + Typ. V
Modification obtained by XRPD ([8]; Ethyl acetate vapor): + amorphous + small amount of Typ. III
Modification obtained by XRPD ([8]; Methyl acetate vapor): + Typ I
Modification obtained by XRPD ([8]; TBME vapor): −
Modification obtained by XRPD ([8]; Tetrahydrofurane vapor): + Typ III
Modification obtained by XRPD ([8]; Toluene vapor): −
Modification obtained by XRPD ([8]; n-butanol vapor): + Typ. V
Compound: COCCCOc1cc(C[C@@H](C[C@H](N)[C@@H](O)C[C@H](C(=O)NCC(C)(C)C(N)=O)C(C)C)C(C)C)ccc1OC [Amorphous, aliskiren hemifumarate]

XRPD after equilibration ([5]; Acetone): + chemical reaction
XRPD after equilibration ([5]; Acetonitrile): −
XRPD after equilibration ([5]; Cyclohexane): −
XRPD after equilibration ([5]; DMAc): + Typ III
XRPD after equilibration ([5]; Dioxane): + Typ III
XRPD after equilibration ([5]; Isopropanol): + Mod. B
XRPD after equilibration ([5]; Methylethylketone): + chemical reaction
XRPD after equilibration ([5]; Pentanol): + Typ V
XRPD after equilibration ([5]; TBME): + amorphous + Typ II
XRPD after equilibration ([5]; Tetrahydrofurane): + Typ III
XRPD after equilibration ([5]; Toluol): + amorphous
change of the form [5]: No change
XRPD after equilibration ([5]; n-heptane): −
Change ([9]; 0.00 hour): none
XRPD ([9]; 0.00 hour): Mod A
Change ([9]; 2.25 hour): none
XRPD ([9]; 2.25 hour): Mod A
Change ([9]; 4.53 hour): none
XRPD ([9]; 4.53 hour): Mod A
Change ([9]; 7.80 hour): none
XRPD ([9]; 7.80 hour): Mod A
Change ([9]; 13.10 hour): none
XRPD ([9]; 13.10 hour): Mod A
Change ([9]; 14.75 hour): none
XRPD ([9]; 14.75 hour): Mod A
XRPD ([10]; 0 h, RH 0%*): Mod A
XRPD ([10]; 2.55 h, RH 10%): Mod A
XRPD ([10]; 5.01 h, RH 25%): Mod A
XRPD ([10]; 7.4 h, RH 35%): Mod A
XRPD ([10]; 9.8 h, RH 45%): Mod A
XRPD ([10]; 24.23 h, RH 45%): Mod A
XRPD ([10]; 26.86 h, RH 60%): Mod A
XRPD ([10]; 32.51 h, RH 70%): Mod A
XRPD ([10]; 47.6 h, RH 70%): Mod A
XRPD ([10]; 143.9 h, RH 70%): Mod A
heat of dissolution, Mean [6]: -7.55 kcal/mol
hygroscopic behavior [7]: strong hygroscopic behavior
Sorpt. wt % 1st ([7]; R.H. 0 %): 0.00 wt %
reversibility of hygroscopicity [7]: reversible
Compound: COCCCOc1cc(C[C@@H](C[C@H](N)[C@@H](O)C[C@H](C(=O)NCC(C)(C)C(N)=O)C(C)C)C(C)C)ccc1OC [Modification A, aliskiren hemifumarate]

Compound: CCOC(=O)[C@H](CCc1ccccc1)N[C@@H](C)C(=O)N1[C@H](C(=O)O)C[C@@H]2CCC[C@@H]21 [ramipril]
PRA [4]: increased
angiotensin II levels [4]: Trends towards reduced
effects on hormonal parameters [4]: No deleterious effects

— US8119841B2 (Novartis AG, priority 2006, dated 2012)
